Measured values reported in PubChem BioAssay (NCI).
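Growth conditions: 96-well plates. Treatment: test compound, 48 hours, 5 concentrations. Analysis: linear interpolation between bracketing concentrations; unreached endpoints set to highest concentration. TGI is the concentration that stops growth completely.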 Where a SMILES comes first, the peptide text is derived from it. The star is where a group is joined. Fmoc = O=C(OCC1c2ccccc2-c2ccccc21)*; Boc = CC(C)(C)OC(=O)*

Tests used:
Experiment in all cases: DTP human tumour cell line panel, 48 h
HS 578T breast = test system: HS 578T breast
SN12C renal = test system: SN12C renal
RPMI-8226 leukemia = test system: RPMI-8226 leukemia
SF-268 CNS = test system: SF-268 CNS
SK-OV-3 ovarian = test system: SK-OV-3 ovarian
BT-549 breast = test system: BT-549 breast
MCF7 breast = test system: MCF7 breast
SF-539 CNS = test system: SF-539 CNS
SR leukemia = test system: SR leukemia
IGROV1 ovarian = test system: IGROV1 ovarian
LOX IMVI melanoma = test system: LOX IMVI melanoma
A498 renal = test system: A498 renal
T-47D breast = test system: T-47D breast
SNB-19 CNS = test system: SNB-19 CNS
OVCAR-5 ovarian = test system: OVCAR-5 ovarian

| SMILES | TGI (HS 578T breast) [µM] | TGI (SN12C renal) [µM] | TGI (RPMI-8226 leukemia) [µM] | TGI (SF-268 CNS) [µM] | TGI (SK-OV-3 ovarian) [µM] | TGI (BT-549 breast) [µM] | TGI (MCF7 breast) [µM] | TGI (SF-539 CNS) [µM] | TGI (SR leukemia) [µM] | TGI (IGROV1 ovarian) [µM] | TGI (LOX IMVI melanoma) [µM] | TGI (A498 renal) [µM] | TGI (T-47D breast) [µM] | TGI (SNB-19 CNS) [µM] | TGI (OVCAR-5 ovarian) [µM] |
| --- | --- | --- | --- | --- | --- | --- | --- | --- | --- | --- | --- | --- | --- | --- | --- |
| Cc1ccc2nc(C=Nc3ccc(Cl)cc3)cc(C)c2c1 | > 69.4 | 29.4 | > 51.3 | 59.2 | > 100 | 30 | 83.7 | 12.8 | 11.6 | 31.3 | 20.1 | > 100 | 48.1 | > 100 | > 100 |
| COc1ccc(C2CC3(c4ccccc4)ON=C(c4ccccc4)N3c3ccccc3S2)cc1 (centres undefined) | > 100 | > 100 | > 100 | > 100 | > 100 | > 100 | > 100 | > 100 |  | > 100 | > 100 | > 100 | > 100 |  | > 100 |
| CSc1ncc2c(n1)sc1c(=O)n(-c3ccccc3)cnc12 | > 100 | > 100 | > 100 | > 100 | > 100 | > 100 |  |  | > 100 | > 100 | > 100 | > 100 | > 100 | > 100 | > 100 |
| COc1ccc(C(=O)/C=C/c2ccc(OCCSCCCCCCCCCCSCCOc3ccc(/C=C/C(=O)c4ccc(OC)c(OC)c4)cc3)cc2)cc1OC | > 100 | > 100 | > 100 | > 100 | > 100 | > 100 | > 100 | > 100 | > 100 | > 100 | > 100 | > 100 | > 100 |  |  |
| O=C(C/C(=N/O)c1cc(-c2ccccc2)no1)c1ccccc1 | 66.6 | > 100 | > 100 | 42.5 | 38.4 | 75.1 | > 100 | 35 | > 100 | 86 | > 100 | > 100 | > 100 | 73.3 | > 100 |
| C=C(CN1CC2C[C@](C(=O)OC)(c3cc4ccccc4[nH]3)C1C(OC)C2OC)S(=O)(=O)c1ccccc1 (some centres undefined) | 10.9 | 11.3 | 6.06 | 15.8 | 13.8 | 12.4 | 18.9 | 16.9 | 5.91 | 8.98 | 3.54 |  | 28.2 | 24.3 | 13.1 |
| COc1ccc(/C=C2\CCC/C(=C\c3ccc(O)c(CN4CCCCC4)c3)C2=O)cc1 | > 100 | 36.5 | > 43.8 | 13.1 | 40.7 | 37.7 | 28.5 | 16.1 | 19.8 | 41.5 | 26.1 | 47.1 | > 73.8 | 70.2 | 61.3 |
| O=C(O)CC(Sc1ccccc1)c1ccccc1 (centres undefined) | > 100 | > 100 | > 100 | > 100 | > 100 | > 100 | > 100 |  |  | > 100 | > 100 | > 100 | > 100 | > 100 | > 100 |
| COc1ccc2cc(-c3nc(N)nc(N4N=C(C)CC4(C)C)n3)c(=N)oc2c1 | 66.4 | 51.7 | 36.6 | 33.8 | 53.9 | 48.1 | 44.2 | 30.2 | 32.1 | 37.8 |  | 82.1 | 38.9 | 40.1 | 41.3 |
| CSc1ccc(/C=C2\N=C(c3ccccc3)N(c3nc4cc(C)c(C)cc4s3)C2=O)cc1 | 92.1 | 72.4 | > 100 | > 100 | > 100 | 98.1 | 37.2 | 40.9 | 54.2 | 81.4 | 44.7 |  | > 100 | 83.9 | 67.9 |
| COC(=O)C1=C(C)C=C(N2CCOCC2)C(C(=O)OC)C1c1ccccc1 (centres undefined) | > 10 | > 10 | > 10 | > 10 | > 10 | > 10 | > 10 | > 10 |  | > 10 | > 10 | > 10 | > 10 | > 10 | > 10 |
| CCOC(=O)c1[nH]cc(C)c1-c1ccc2c(-c3ccccc3)nc3ccccc3n12 | 6.5 | 15.2 |  | 17.1 | 23.5 | 17.4 | 14.3 | 9.04 | 5.34 | 16.1 | 12.3 | 9.98 | 18.4 |  | 64.5 |
| CC1C(OC2O[C@@H]3O[C@@]4(C)CC[C@H]5[C@H](C)CC[C@@H](C2C)[C@@]35O4)O[C@@H]2O[C@@]3(C)CC[C@H]4[C@H](C)CC[C@@H]1[C@@]24O3 (some centres undefined) | > 50 | > 50 | > 50 | > 50 | > 50 | > 50 | > 50 | > 50 | > 50 |  | > 50 | > 50 | > 50 | > 50 | > 50 |
| CC1CCC2(CC1)NC1=C(CC(C)CC1)C1=C2CC(C)CC1 (centres undefined) | 63.2 |  | 55.6 |  | > 100 | 38.4 | 34.5 | 40.6 | 55.8 | > 100 | 34.9 | > 100 | 78.6 | 78.2 | 57.9 |
| COC(=O)[C@H](CC(C)C)Nc1c(O)c2c(c(O)c1Cl)C(=O)C=CC2=O | > 10 | > 10 | > 10 | > 10 | > 10 | > 10 |  | > 10 | > 10 | > 10 | 5.74 | > 10 | > 10 | > 10 | > 10 |
| COC(=O)C1=C(OC(=O)/C=C/c2ccc(Cl)cc2)C(C(=O)OC)[C@@]2(O)[C@@H](C(=O)OC)[C@H](C)C[C@@H]1[C@@H]2C(=O)OC (some centres undefined) | 15.5 | 45.7 |  | 42.9 | > 100 | 53.7 |  | > 100 |  | 23.1 | 37.7 |  | > 100 | > 100 | 81.7 |
| Cc1cc(S(=O)(=O)/N=C(/[N-]S(=O)(=O)c2ccc(Cl)cc2)[n+]2ccc(N(C)C)cc2)c(SCC(=O)O)cc1Cl | > 100 | > 100 | > 100 | > 100 | > 100 | > 100 | > 100 | > 100 | > 100 |  | > 100 | > 100 | > 100 | > 100 | > 100 |
| CC(OC(=O)C(CC(=O)OC(C)(C)C)NC(=O)OC(C)(C)C)C(=O)OCc1ccccc1 (centres undefined) | > 100 | > 100 | > 100 | > 100 | > 100 | > 100 | > 100 | > 100 | > 100 | > 100 | > 100 |  | > 100 | > 100 | > 100 |
| O=C1CC(=O)NC(=NNS(=O)(=O)c2ccccc2)N1 | > 100 | > 100 | > 100 | > 100 | > 100 | > 100 | > 100 | > 100 | > 100 | > 100 |  |  | > 100 | > 100 | > 100 |
| CC(C)(C)OC(=O)NCCCCC(NC(=O)C(Cc1c[nH]c2ccccc12)NC(=O)OCC1c2ccccc2-c2ccccc21)C(=O)N1CCCC1C(=O)NCC(N)=O (centres undefined) (Fmoc-WK(Boc)PG-NH2; configuration not given here) | > 100 | > 100 | > 100 | > 100 | > 100 | > 100 | > 100 | > 100 | > 100 | > 100 | > 100 |  | > 100 | > 100 | > 100 |
| COc1cc2c(cc1OCCCCOc1cc3c(cc1OC)C(=O)N1CCC[C@H]1C(=O)N3)N=C[C@@H]1CCCN1C2=O | 27.6 | 21.4 | 3.66 | 14.8 |  | 16.8 | 18.1 |  | 4.59 | 20.7 | 4.22 | 19.9 | 28.7 | 20.5 | 33 |
| Cc1nnc(N)nc1/C=C/c1c(O)ccc2ccccc12 | 85 | > 100 | > 100 | 96.9 | > 100 | > 100 | > 100 |  | > 100 | 32.2 | > 100 | 47.1 | > 100 | > 100 | 78.7 |
| CCN(CC)Cc1c(/C=C\c2cc(OC)c(OC)c(OC)c2)ccc(OC)c1O | 6.22 | > 71.7 | > 100 | 52.2 | 10.2 | > 82.2 | 99.4 | 9.24 |  | > 78.5 | > 100 | 17.4 | > 100 | > 100 | > 100 |
